{
  "source": "patent US20220096461A1",
  "about": "“LIQUID ORAL DOSAGE FORMULATIONS OF METHYLNALTREXONE” (Bausch Health Ireland Limited, priority 2019, published 2022)",
  "key": {"[1]": {"tested_on": "opioid-induced constipation", "settings": "12 mg subcutaneous injection; patients with chronic non-cancer pain; cited from earlier work"}, "[2]": {"test": "Partition coefficient between octanol and water (Log P)", "assay_type": "physicochemical", "settings": "n-octanol/water; ratios 9:1, 7:3, 1:1; HPLC", "protocol": "To determine the partition coefficient of each ion pair, about 15 mg of each ion pair was dissolved in separate 100 ml portions of n-octanol (previously saturated with water). Three n-octanol solutions were prepared for each ion pair. Mixtures having three different volumetric ratios of n-octanol to water (9:1, 7:3, and 1:1) were prepared by adding water and agitating the mixtures on a bench top agitator for two hours. After agitation, samples from each mixture were centrifuged for 10 min at 10,000 rpm to separate aqueous and n-octanol phase. The concentration of methylnaltrexone in the aqueous and n-octanol phases was determined by HPLC. Log P was calculated from the ratio of the drug concentration in n-octanol to the drug concentration in water."}},
  "data": [
    {"molecule": "C[N@+]1(CC2CC2)CC[C@]23c4c5ccc(O)c4O[C@H]2C(=O)CC[C@@]3(O)[C@H]1C5", "note": "[methylnaltrexone, (R)—N-methylnaltrexone]", "values": [
      {"measurement": "Patients with three or more spontaneous bowel movements each week for four weeks", "setting": "[1]", "result": 59, "unit": "%"}
    ]},
    {"molecule": "Methylnaltrexone - Lauryl Sulfate", "values": [
      {"measurement": "LogP", "setting": "[2]", "result": 1.23}
    ]},
    {"molecule": "CCCCC(CC)COC(=O)CC(C(=O)OCC(CC)CCCC)S(=O)(=O)[O-].C[N+]1(CC2CC2)CCC23c4c5ccc(O)c4OC2C(=O)CCC3(O)C1C5", "note": "(stereo not drawn) [Methylnaltrexone - Docusate]", "values": [
      {"measurement": "LogP", "setting": "[2]", "result": 1.67}
    ]}
  ]
}
